What follows are compounds tested against T1, GST-human KRas166 (G12V) GPPNHP (Homo sapiens, UniProt P01116, G12V) (assay: KRas small-molecule screening by SPR (Biacore T200)). Settings: compound 100 uM, 5% DMSO buffer; immobilised GST-KRas166 (G12V) GPPNHP.
T1 construct: made in house; host or cells: E. coli C41(DE3)
Assay type: binding
Procedure: For SPR assays pGEX-KRAS(G12V) plasmid was transformed into E. coli C41(DE3). Bacterial cells were cultured at 37° C. to an OD600 of 0.6 and induced with IPTG (final 0.1 mM) at 18° C. over night. The GST fusion proteins were extracted from bacteria pellets after cell disruption in 140 mM NaCl, 2.7 mM KCl, 10 mM NaH2PO4, 1.8 mM KH2PO4, 1 mM EDTA, 2 mM MgCl2 pH 7.4 and purified by glutathione-sepharose column chromatography (GE Healthcare), eluting with 50 mM Tris-HCl pH8.0, 10 mM reduced glutathione, 1 mM DTT, 2 mM MgCl2. The eluted proteins were dialysed against 50 mM Tris-HCl pH8.0, 1 mM DTT, 2 mM MgCl2 and concentrated to 10 mg/ml using a Biomax-30 ULTRAFREE-15 centrifugal filter device (Millipore). Purified KRAS protein was loaded with GPPNHP as described elsewhere (Pacold et al., 2000). Loaded protein was then purified by gel filtration on a HiLoad Superdex-75 HR column (GE Healthcare) in 1×PBS pH7.4, 5 mM MgCl2 and concentrated for storage.
Protocol for KRas Small-Molecule Screening and Affinity Measurements by SPR
To a previously immobilized CM5 chip (GE Healthcare BR-1005-30) with anti GST antibody via amine coupling method, GST in channel 1 and GST-human KRas166 (G12V) GPPNHP in channel 2 were immobilised. GST was immobilised between 2,000 and 5,000 Response units. KRAS166 (G12V) was immobilized between 10,000 to 15,000 Response Units.
In a 96 well plate, compounds were diluted in […], 5 mM MgCl2 and 5% DMSO Buffer to a final concentration of 100 uM. DCAl was used as positive control. Experiment also included a solvent correction curve for 5% DMSO. Screening and evaluation of the protein immobilization and the compounds screening was done accordingly to the BIACORE T200 control and evaluation software.
Calculations for how many response units are required for a 1:1 ratio of compound/protein interaction are shown below. • Protein immobilisation: 10,000 RU; average fragment 300 Da in size. • Rmax=(MWA/MWL)×RL×SM • MWA is the molecular weight of the analyte in Da • MWL is the molecular weight of the ligand in Da • RL is the immobilization level in RU • SM is the molar stoichiometry (assume 1:1) • Rmax=300/47,500×10,000×1 • Rmax=63 RU. Cell Viability Assay protocols Assay 1

Compound	SPR Response Units
COc1cccc(-c2cccc3c2OC(CN2C(=O)CN(C4CCNCC4)C2=O)CO3)n1 (stereo not shown) [Example 37, 3-[8-(6-Methoxy-pyridin-2-yl)-2,3-dihydro-benzo[1,4]dioxin-2-ylmethyl]-1-piperidin-4-yl-imidazolidine-2,4-dione]	31 Response Units
COc1cccc(-c2cccc3c2OC(CNCc2cccnc2)CO3)n1 (stereo not shown) [Example 28, [8-(6-Methoxy-pyridin-2-yl)-2,3-dihydro-benzo[1,4]dioxin-2-ylmethyl]-pyridin-3-ylmethyl-amine]	28 Response Units
CN(C)Cc1cccc(Nc2ccc(-c3cccc4c3OCCO4)nn2)c1 [Example 67a, [6-(2,3-Dihydro-benzo[1,4]dioxin-5-yl)-pyridazin-3-yl]-(3-dimethylaminomethyl-phenyl)-amine]	31 Response Units
COc1cccc(-c2cccc3c2O[C@H](CNC(=O)C2CCN(Cc4cnccn4)CC2)CO3)n1 [Example 48, 1-Pyrazin-2-ylmethyl-piperidine-4-carboxylic acid [(R)-8-(6-methoxy-pyridin-2-yl)-2,3-dihydro-benzo[1,4]dioxin-2-ylmethyl]-amide]	54 Response Units
COc1cccc(-c2cccc3c2OC(CNCC2CCN(C(=O)c4cnccn4)CC2)CO3)n1 (stereo not shown) [Example 29a, [4-({[8-(6-Methoxy-pyridin-2-yl)-2,3-dihydro-benzo[1,4]dioxin-2-ylmethyl]-amino}-methyl)-piperidin-1-yl]-pyrazin-2-yl-methanone]	26 Response Units
COc1cccc(-c2cccc3c2OC(CNCC2CCOCC2)CO3)n1 (stereo not shown) [Example 29, [8-(6-Methoxy-pyridin-2-yl)-2,3-dihydro-benzo[1,4]dioxin-2-ylmethyl]-(tetrahydro-pyran-4-ylmethyl)-amine]	14 Response Units
COc1ccc(-c2cccc3c2OC(CNC(=O)c2ccc(CN4CCN(C)CC4)o2)CO3)cn1 (stereo not shown) [Example 45a, 5-(4-Methyl-piperazin-1-ylmethyl)-furan-2-carboxylic acid [8-(6-methoxy-pyridin-3-yl)-2,3-dihydro-benzo[1,4]dioxin-2-ylmethyl]-amide]	90 Response Units
COc1cccc(-c2cccc3c2OC(CNCC2CCN(C)CC2)CO3)n1 (stereo not shown) [Example 27, [8-(6-Methoxy-pyridin-2-yl)-2,3-dihydro-benzo[1,4]dioxin-2-ylmethyl]-(1-methyl-piperidin-4-ylmethyl)-amine]	58 Response Units
COc1cc(NC(=O)[C@@H]2CNCCO2)cc(-c2cccc3c2OCCO3)n1 [Example 20, (S)-Morpholine-2-carboxylic acid [2-(2,3-dihydro-benzo[1,4]dioxin-5-yl)-6-methoxy-pyridin-4-yl]-amide]	80 Response Units
COc1cccc(-c2cccc3c2OC(CNC(=O)C2CCN(C)CC2)CO3)n1 (stereo not shown) [Example 50, 1-Methyl-piperidine-4-carboxylic acid [8-(6-methoxy-pyridin-2-yl)-2,3-dihydro-benzo[1,4]dioxin-2-ylmethyl]-amide]	14 Response Units
COc1cccc(-c2cccc3c2OC(CN2C(=O)NC(C)(C)C2=O)CO3)n1 (stereo not shown) [Example 35, 3-[8-(6-Methoxy-pyridin-2-yl)-2,3-dihydro-benzo[1,4]dioxin-2-ylmethyl]-5,5-dimethyl-imidazolidine-2,4-dione]	33 Response Units
COc1cccc(-c2cccc3c2OC(CNC(=O)C2CCOCC2)CO3)n1 (stereo not shown) [Example 45, Tetrahydro-pyran-4-carboxylic acid [8-(6-methoxy-pyridin-2-yl)-2,3-dihydro-benzo[1,4]dioxin-2-ylmethyl]-amide]	12 Response Units
COc1cccc(-c2cccc3c2OC(CNC(=O)CCN(C)C)CO3)n1 (stereo not shown) [Example 47, 3-Dimethylamino-N-[8-(6-methoxy-pyridin-2-yl)-2,3-dihydro-benzo[1,4]dioxin-2-ylmethyl]-propionamide]	16 Response Units
CN1CCN(Cc2ccc(C(=O)NCC3COc4cccc(-c5ccn[nH]5)c4O3)o2)CC1 (stereo not shown) [Example 42, 5-(4-Methyl-piperazin-1-ylmethyl)-furan-2-carboxylic acid [8-(2H-pyrazol-3-yl)-2,3-dihydro-benzo[1,4]dioxin-2-ylmethyl]-amide]	62 Response Units

The remaining lines, values ahead:

SPR Response Units	Compound
16 Response Units	CN1CCN(Cc2ccc(C(=O)NCC3COc4cccc(-c5ccc(NCC6CCOCC6)cn5)c4O3)o2)CC1 (stereo not shown) [Example 83, 5-(4-Methyl-piperazin-1-ylmethyl)-furan-2-carboxylic acid (8-{5-[(tetrahydro-pyran-4-ylmethyl)-amino]-pyridin-2-yl}-2,3-dihydro-benzo[1,4]dioxin-2-ylmethyl)-amide]
7 Response Units	CN1CCC(CC(=O)Nc2ccc(-c3cccc4c3O[C@H](CNC(=O)C3CCOCC3)CO4)nc2)CC1 [Example 92, Tetrahydro-pyran-4-carboxylic acid ((R)-8-{5-[2-(1-methyl-piperidin-4-yl)-acetylamino]-pyridin-2-yl}-2,3-dihydro-benzo[1,4]dioxin-2-ylmethyl)-amide]
40 Response Units	COc1nc(Nc2cccc3c2OC(CNC(=O)c2ccc(CN4CCN(C)CC4)o2)CO3)ccc1NC(=O)[C@H]1CCCN1 (stereo partly drawn) [Example 131, (R)-Pyrrolidine-2-carboxylic acid{2-methoxy-6-[3-({[5-(4-methyl-piperazin-1-ylmethyl)-furan-2-carbonyl]-amino}-methyl)-2,3-dihydro-benzo[1,4]dioxin-5-ylamino]-pyridin-3-yl}-amide]
4.6 Response Units	OCC1COc2cccc(-c3ccc(OCCN4CCOCC4)cn3)c2O1 (stereo not shown) [Example 110, {8-[5-(2-Morpholin-4-yl-ethoxy)-pyridin-2-yl]-2,3-dihydro-benzo[1,4]dioxin-2-yl}-methanol]
161 Response Units	COc1nc(-c2cccc3c2OC(CNC(=O)C2CCOCC2)CO3)ccc1Nc1cccnc1 (stereo not shown) [Example 88, Tetrahydro-pyran-4-carboxylic acid {8-[6-methoxy-5-(pyridin-3-ylamino)-pyridin-2-yl]-2,3-dihydro-benzo[1,4]dioxin-2-ylmethyl]-amide]
20 Response Units	CN1CCC(COc2ccc(-c3cccc4c3OCCO4)nn2)CC1 [Example 85, 3-(2,3-Dihydro-benzo[1,4]dioxin-5-yl)-6-(1-methyl-piperidin-4-ylmethoxy)-pyridazine]
64 Response Units	CN(C)CCOc1ccc(C(=O)NCC2COc3cccc(-c4cccc(N(C)C)n4)c3O2)cc1 (stereo not shown) [Example 103, 4-(2-Dimethylamino-ethoxy)-N-[8-(6-dimethylamino-pyridin-2-yl)-2,3-dihydro-benzo[1,4]dioxin-2-ylmethyl]-benzamide]
96 Response Units	COc1cc(NC(=O)[C@@H]2CC[C@H](N)C2)cc(-c2cccc3c2OCCO3)n1 [Example 133, (1R,3S)-3-Amino-cyclopentanecarboxylic acid[2-(2,3-dihydro-benzo[1,4]dioxin-5-yl)-6-methoxy-pyridin-4-yl]-amide]
